Test results reported in US8178668B2, “2-aminopyridine kinase inhibitors” (OSI Pharmaceuticals, LLC, priority 2008, dated 2012).
Counter-ions that a name gives are not always drawn.

Experiments:
RON (human) = RON (human) (Homo sapiens, UniProt Q04912); assay: RON kinase AlphaScreen assay (Km of ATP); assay type: biochemical; details: ATP at Km; at least duplicate experiments
Summary of the method: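 Human RON phosphorylated biotinylated poly(Glu,Tyr) (200 ng/μL) at Km ATP in 50 mM HEPES pH 7.4, 12.5 mM MgCl2, 1% glycerol, 0.334 mM vanadate, 1% DMSO. Reaction ran 30 min at RT after enzyme addition. Product was detected by AlphaScreen with PT66 beads after 1 h.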

MET (human) = MET (human) (Homo sapiens, UniProt P08581); assay: MET kinase AlphaScreen assay (Km of ATP); assay type: biochemical; details: ATP at Km; at least duplicate experiments
Summary of the method: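 Biotinylated poly(Glu,Tyr) (200 ng/μL) phosphorylated by MET with ATP at an enzyme-optimized level, in 50 mM HEPES pH 7.4 with Mg2+/Mn2+ and vanadate, 1% DMSO. Reaction runs 60 min at RT. PT66 AlphaScreen donor/acceptor beads are added and signal is read after 1 h.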

Sequence of MET (human) (P08581 25-1390): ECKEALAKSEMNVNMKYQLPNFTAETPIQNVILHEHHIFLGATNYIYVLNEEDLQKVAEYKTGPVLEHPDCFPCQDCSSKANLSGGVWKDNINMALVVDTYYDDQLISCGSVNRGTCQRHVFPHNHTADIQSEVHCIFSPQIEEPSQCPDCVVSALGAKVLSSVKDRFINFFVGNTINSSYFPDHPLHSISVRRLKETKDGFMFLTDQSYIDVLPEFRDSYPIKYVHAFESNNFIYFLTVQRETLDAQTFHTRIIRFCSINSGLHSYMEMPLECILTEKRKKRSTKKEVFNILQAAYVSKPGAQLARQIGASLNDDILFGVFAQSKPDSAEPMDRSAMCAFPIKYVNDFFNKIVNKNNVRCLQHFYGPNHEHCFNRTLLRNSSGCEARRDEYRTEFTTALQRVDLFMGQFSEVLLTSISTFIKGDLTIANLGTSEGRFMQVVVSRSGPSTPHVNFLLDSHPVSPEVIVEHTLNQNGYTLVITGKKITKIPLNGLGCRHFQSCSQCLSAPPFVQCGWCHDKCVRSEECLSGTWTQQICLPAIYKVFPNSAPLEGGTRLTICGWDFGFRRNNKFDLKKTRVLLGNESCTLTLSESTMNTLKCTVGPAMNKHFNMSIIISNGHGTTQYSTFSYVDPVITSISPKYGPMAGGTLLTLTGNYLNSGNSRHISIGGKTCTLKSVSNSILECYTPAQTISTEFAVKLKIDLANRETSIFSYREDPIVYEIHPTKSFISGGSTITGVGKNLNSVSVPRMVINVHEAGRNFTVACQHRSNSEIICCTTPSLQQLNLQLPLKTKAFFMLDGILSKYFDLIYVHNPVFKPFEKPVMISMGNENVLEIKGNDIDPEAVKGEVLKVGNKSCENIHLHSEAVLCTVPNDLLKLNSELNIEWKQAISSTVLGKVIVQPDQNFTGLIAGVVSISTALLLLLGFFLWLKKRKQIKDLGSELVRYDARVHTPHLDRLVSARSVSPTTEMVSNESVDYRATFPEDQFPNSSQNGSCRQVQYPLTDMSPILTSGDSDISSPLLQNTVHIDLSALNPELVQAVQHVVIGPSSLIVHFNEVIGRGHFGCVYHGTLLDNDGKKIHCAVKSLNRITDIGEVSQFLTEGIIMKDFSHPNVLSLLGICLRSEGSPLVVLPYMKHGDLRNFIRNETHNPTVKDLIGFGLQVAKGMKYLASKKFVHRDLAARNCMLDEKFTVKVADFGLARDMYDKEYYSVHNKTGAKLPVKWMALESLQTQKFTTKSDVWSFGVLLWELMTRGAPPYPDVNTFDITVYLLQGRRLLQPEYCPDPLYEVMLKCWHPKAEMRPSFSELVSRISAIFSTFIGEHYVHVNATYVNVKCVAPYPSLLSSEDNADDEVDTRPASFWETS
Sequence of RON (human) (Q04912 25-1400): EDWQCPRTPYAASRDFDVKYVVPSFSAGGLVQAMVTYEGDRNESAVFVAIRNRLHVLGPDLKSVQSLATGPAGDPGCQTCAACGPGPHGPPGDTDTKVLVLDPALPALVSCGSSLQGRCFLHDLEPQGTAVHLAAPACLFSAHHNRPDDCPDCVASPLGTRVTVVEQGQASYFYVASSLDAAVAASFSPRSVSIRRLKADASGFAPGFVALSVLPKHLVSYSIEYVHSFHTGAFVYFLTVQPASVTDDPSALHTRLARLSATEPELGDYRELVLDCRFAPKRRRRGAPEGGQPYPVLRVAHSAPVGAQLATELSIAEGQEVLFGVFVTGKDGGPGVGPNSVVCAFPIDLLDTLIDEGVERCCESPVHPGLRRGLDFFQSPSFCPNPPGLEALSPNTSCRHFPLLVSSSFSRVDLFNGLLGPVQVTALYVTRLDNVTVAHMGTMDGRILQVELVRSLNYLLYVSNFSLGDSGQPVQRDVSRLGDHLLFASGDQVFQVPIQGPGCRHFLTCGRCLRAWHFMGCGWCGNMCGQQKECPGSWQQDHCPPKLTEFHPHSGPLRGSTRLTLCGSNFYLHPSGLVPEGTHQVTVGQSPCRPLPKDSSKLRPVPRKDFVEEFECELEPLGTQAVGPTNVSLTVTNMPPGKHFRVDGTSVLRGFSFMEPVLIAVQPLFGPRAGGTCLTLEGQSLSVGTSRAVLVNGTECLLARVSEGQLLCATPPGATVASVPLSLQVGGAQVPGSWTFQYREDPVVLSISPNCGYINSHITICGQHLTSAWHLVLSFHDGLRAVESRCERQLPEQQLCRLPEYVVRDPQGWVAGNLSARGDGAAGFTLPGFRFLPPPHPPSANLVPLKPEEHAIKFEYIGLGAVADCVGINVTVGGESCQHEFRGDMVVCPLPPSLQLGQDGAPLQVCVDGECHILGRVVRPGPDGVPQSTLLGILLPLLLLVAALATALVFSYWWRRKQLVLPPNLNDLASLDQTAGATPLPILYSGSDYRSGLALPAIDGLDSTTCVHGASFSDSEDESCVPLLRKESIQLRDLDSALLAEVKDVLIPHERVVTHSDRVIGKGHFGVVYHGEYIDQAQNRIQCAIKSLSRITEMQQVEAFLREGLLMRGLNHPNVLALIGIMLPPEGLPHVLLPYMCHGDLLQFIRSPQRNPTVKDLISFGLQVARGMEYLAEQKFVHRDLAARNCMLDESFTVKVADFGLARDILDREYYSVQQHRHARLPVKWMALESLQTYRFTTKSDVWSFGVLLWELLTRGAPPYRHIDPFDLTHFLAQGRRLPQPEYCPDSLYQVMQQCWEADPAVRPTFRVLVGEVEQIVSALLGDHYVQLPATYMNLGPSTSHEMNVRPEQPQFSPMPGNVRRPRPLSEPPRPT

| IC50 (RON (human)) | IC50 (MET (human)) | SMILES |
| --- | --- | --- |
| 100 to 1000 nM | ≤ 100 nM | Nc1ncc(-c2cnn([C@@H]3CN[C@H](C(=O)O)C3)c2)cc1-c1nc2ccccc2s1 [Example 154, (2S,4S)-4-[4-(6-Amino-5-benzothiazol-2-ylpyridin-3-yl)-pyrazol-1-yl]-pyrrolidine-2-carboxylic acid] |
| 100 to 1000 nM | ≤ 100 nM | CN(C)C(=O)[C@@H]1C[C@H](n2cc(-c3cnc(N)c(-c4nc5ccccc5s4)c3)cn2)CN1 [Example 155, (2S,4S)-4-[4-(6-Amino-5-benzothiazol-2-ylpyridin-3-yl)-pyrazol-1-yl]-pyrrolidine-2-carboxylic acid dimethylamide] |
| ≤ 100 nM | ≤ 100 nM | Nc1ncc(-c2cnn([C@@H]3CN[C@H](C(=O)N4CCOCC4)C3)c2)cc1-c1nc2ccccc2s1 [Example 157, {(2S,4S)-4-[4-(6-Amino-5-benzothiazol-2-ylpyridin-3-yl)-pyrazol-1-yl]-pyrrolidin-2-yl}-morpholin-4-ylmethanone] |
| ≤ 100 nM | ≤ 100 nM | Nc1ncc(-c2cnn([C@@H]3CN[C@H](C(=O)N4CCCCC4)C3)c2)cc1-c1nc2ccccc2s1 [Example 158, {(2S,4S)-4-[4-(6-Amino-5-benzothiazol-2-ylpyridin-3-yl)-pyrazol-1-yl]-pyrrolidin-2-yl}-piperidin-1-ylmethanone] |
| 100 to 1000 nM | 100 to 1000 nM | CNC(=O)CN1CCC(n2cc(-c3cnc(N)c(-c4nc5ccccc5s4)c3)cn2)CC1 [Example 163, 2-{4-[4-(6-Amino-5-benzothiazol-2-ylpyridin-3-yl)-pyrazol-1-yl]-piperidin-1-yl}-N-methylacetamide] |
| 100 to 1000 nM | 100 to 1000 nM | CN(C)C(=O)CN1CCC(n2cc(-c3cnc(N)c(-c4nc5ccccc5s4)c3)cn2)CC1 [Example 164, 2-{4-[4-(6-Amino-5-benzothiazol-2-ylpyridin-3-yl)-pyrazol-1-yl]-piperidin-1-yl}-N,N-dimethylacetamide] |
| 100 to 1000 nM | ≤ 100 nM | Nc1ncc(-c2cnn(C3CCN(CC(=O)N4CCCC4)CC3)c2)cc1-c1nc2ccccc2s1 [Example 166, 2-{4-[4-(6-Amino-5-benzothiazol-2-ylpyridin-3-yl)-pyrazol-1-yl]-piperidin-1-yl}-1-pyrrolidin-1-ylethanone] |
| 100 to 1000 nM | ≤ 100 nM | Nc1ncc(-c2cnn(C3CCN(CC(=O)N4CCC(O)C4)CC3)c2)cc1-c1nc2ccccc2s1 (stereo not drawn) [Example 167, 2-{4-[4-(6-Amino-5-benzothiazol-2-ylpyridin-3-yl)-pyrazol-1-yl]-piperidin-1-yl}-1-(3-hydroxypyrrolidin-1-yl)ethanone] |
| 100 to 1000 nM | 100 to 1000 nM | Nc1ncc(-c2cnn(C3CCN(CC(=O)N4CCCCC4)CC3)c2)cc1-c1nc2ccccc2s1 [Example 168, 2-{4-[4-(6-Amino-5-benzothiazol-2-ylpyridin-3-yl)-pyrazol-1-yl]-piperidin-1-yl}-1-piperidin-1-ylethanone] |
| 100 to 1000 nM | ≤ 100 nM | Nc1ncc(-c2cnn(C3CCN(CC(=O)N4CCOCC4)CC3)c2)cc1-c1nc2ccccc2s1 [Example 170, 2-{4-[4-(6-Amino-5-benzothiazol-2-ylpyridin-3-yl)-pyrazol-1-yl]-piperidin-1-yl}-1-morpholin-4-ylethanone] |
| 100 to 1000 nM | 100 to 1000 nM | CN(C)C(=O)[C@H]1C[C@H](n2cc(-c3cnc(N)c(-c4nc5ccccc5s4)c3)cn2)CN1 [Example 175, (2R,4S)-4-[4-(6-Amino-5-benzothiazol-2-ylpyridin-3-yl)-pyrazol-1-yl]-pyrrolidine-2-carboxylic acid dimethylamide] |
| 100 to 1000 nM | 100 to 1000 nM | Nc1ncc(-c2cnn([C@@H]3CN[C@@H](C(=O)N4CCCC4)C3)c2)cc1-c1nc2ccccc2s1 [Example 176, {(2R,4S)-4-[4-(6-Amino-5-benzothiazol-2-ylpyridin-3-yl)-pyrazol-1-yl]-pyrrolidin-2-yl}-pyrrolidin-1-ylmethanone] |
| 100 to 1000 nM | ≤ 100 nM | Nc1ncc(-c2cnn([C@@H]3CN[C@@H](C(=O)N4CCC(O)C4)C3)c2)cc1-c1nc2ccccc2s1 (stereo partly drawn) [Example 177, {(2R,4S)-4-[4-(6-Amino-5-benzothiazol-2-ylpyridin-3-yl)-pyrazol-1-yl]-pyrrolidin-2-yl}-(3-hydroxypyrrolidin-1-yl)methanone] |
| 100 to 1000 nM | 100 to 1000 nM | Nc1ncc(-c2cnn([C@@H]3CN[C@@H](C(=O)N4CCCCC4)C3)c2)cc1-c1nc2ccccc2s1 [Example 178, {(2R,4S)-4-[4-(6-Amino-5-benzothiazol-2-ylpyridin-3-yl)-pyrazol-1-yl]-pyrrolidin-2-yl}-piperidin-1-ylmethanone] |
| 100 to 1000 nM | ≤ 100 nM | Nc1ncc(-c2cnn(C3CNC3)c2)cc1-c1nc2ccccc2s1 [Example 181, 5-(1-Azetidin-3-yl-1H-pyrazol-4-yl)-3-benzothiazol-2-ylpyridin-2-ylamine trifluoroacetate] |
| 1000 to 20000 nM | 100 to 1000 nM | CN1CCN(C(=O)c2ccc(-c3cnc(N)c(-c4nc5ccccc5s4)c3)cc2)CC1 [Example 182, [4-(6-Amino-5-benzothiazol-2-ylpyridin-3-yl)phenyl]-(4-methylpiperazin-1-yl)methanone] |

Second part, the compound before the results:

| SMILES | IC50 (RON (human)) | IC50 (MET (human)) |
| --- | --- | --- |
| CC(C(=O)N1CCCCC1)n1cc(-c2cnc(N)c(-c3nc4ccccc4s3)c2)cn1 (stereo not drawn) [Example 152, 2-[4-(6-Amino-5-benzothiazol-2-ylpyridin-3-yl)-pyrazol-1-yl]-1-piperidin-1-ylpropan-1-one] | 1000 to 20000 nM | 1000 to 20000 nM |
| Nc1ncc(-c2cnn(CCC(=O)N3CCCC3)c2)cc1-c1nc2ccccc2s1 [Example 153, 3-[4-(6-Amino-5-benzothiazol-2-ylpyridin-3-yl)-pyrazol-1-yl]-1-pyrrolidin-1-ylpropan-1-one] | > 20000 nM | 100 to 1000 nM |
| Nc1ncc(-c2cnn([C@@H]3CN[C@H](C(=O)N4CCCC4)C3)c2)cc1-c1nc2ccccc2s1 [Example 156, {(2S,4S)-4-[4-(6-Amino-5-benzothiazol-2-ylpyridin-3-yl)-pyrazol-1-yl]-pyrrolidin-2-yl}-pyrrolidin-1-ylmethanone] | ≤ 100 nM | ≤ 100 nM |
| Nc1ncc(-c2cnn([C@@H]3CN[C@H](C(=O)N4CCC(O)C4)C3)c2)cc1-c1nc2ccccc2s1 (stereo partly drawn) [Example 159, {(2S,4S)-4-[4-(6-Amino-5-benzothiazol-2-ylpyridin-3-yl)-pyrazol-1-yl]-pyrrolidin-2-yl}-(3-hydroxypyrrolidin-1-yl)-methanone] | ≤ 100 nM | ≤ 100 nM |
| Nc1ncc(-c2cnn([C@@H]3CN[C@H](C(=O)N4CCC4)C3)c2)cc1-c1nc2ccccc2s1 [Example 160, {(2S,4S)-4-[4-(6-Amino-5-benzothiazol-2-ylpyridin-3-yl)-pyrazol-1-yl]-pyrrolidin-2-yl}-azetidin-1-ylmethanone] | 100 to 1000 nM | ≤ 100 nM |
| Nc1ncc(-c2cnn(C3CCN(CC(=O)O)CC3)c2)cc1-c1nc2ccccc2s1 [Example 161, {4-[4-(6-Amino-5-benzothiazol-2-ylpyridin-3-yl)-pyrazol-1-yl]-piperidin-1-yl}-acetic acid] | 100 to 1000 nM | ≤ 100 nM |
| NC(=O)CN1CCC(n2cc(-c3cnc(N)c(-c4nc5ccccc5s4)c3)cn2)CC1 [Example 162, 2-{4-[4-(6-Amino-5-benzothiazol-2-ylpyridin-3-yl)-pyrazol-1-yl]-piperidin-1-yl}-acetamide] | 100 to 1000 nM | ≤ 100 nM |
| Nc1ncc(-c2cnn(C3CCN(CC(=O)N4CCC4)CC3)c2)cc1-c1nc2ccccc2s1 [Example 165, 2-{4-[4-(6-Amino-5-benzothiazol-2-ylpyridin-3-yl)-pyrazol-1-yl]-piperidin-1-yl}-1-azetidin-1-ylethanone] | 100 to 1000 nM | 100 to 1000 nM |
| Nc1ncc(-c2cnn(C3CCN(CC(=O)N4CCC(O)CC4)CC3)c2)cc1-c1nc2ccccc2s1 [Example 169, 2-{4-[4-(6-Amino-5-benzothiazol-2-ylpyridin-3-yl)-pyrazol-1-yl]-piperidin-1-yl}-1-(4-hydroxypiperidin-1-yl)ethanone] | 100 to 1000 nM | ≤ 100 nM |
| Nc1ncc(-c2cnn(C3CCN(CC(=O)NCCO)CC3)c2)cc1-c1nc2ccccc2s1 [Example 171, 2-{4-[4-(6-Amino-5-benzothiazol-2-ylpyridin-3-yl)-pyrazol-1-yl]-piperidin-1-yl}-N-(2-hydroxyethyl)-acetamide] | 100 to 1000 nM | ≤ 100 nM |
| COCCNC(=O)CN1CCC(n2cc(-c3cnc(N)c(-c4nc5ccccc5s4)c3)cn2)CC1 [Example 172, 2-{4-[4-(6-Amino-5-benzothiazol-2-ylpyridin-3-yl)-pyrazol-1-yl]-piperidin-1-yl}-N-(2-methoxyethyl)-acetamide] | 100 to 1000 nM | 100 to 1000 nM |
| COCCN(CCOC)C(=O)CN1CCC(n2cc(-c3cnc(N)c(-c4nc5ccccc5s4)c3)cn2)CC1 [Example 173, 2-{4-[4-(6-Amino-5-benzothiazol-2-ylpyridin-3-yl)-pyrazol-1-yl]-piperidin-1-yl}-N,N-bis-(2-methoxyethyl)-acetamide] | 100 to 1000 nM | 100 to 1000 nM |
| Nc1ncc(-c2cnn([C@@H]3CN[C@@H](C(=O)O)C3)c2)cc1-c1nc2ccccc2s1 [Example 174, (2R,4S)-4-[4-(6-Amino-5-benzothiazol-2-ylpyridin-3-yl)-pyrazol-1-yl]-pyrrolidine-2-carboxylic acid] | 1000 to 20000 nM | ≤ 100 nM |
| Nc1ncc(-c2cnn([C@@H]3CN[C@@H](C(=O)N4CCOCC4)C3)c2)cc1-c1nc2ccccc2s1 [Example 179, {(2R,4S)-4-[4-(6-Amino-5-benzothiazol-2-ylpyridin-3-yl)-pyrazol-1-yl]-pyrrolidin-2-yl}-morpholin-4-ylmethanone] | 100 to 1000 nM | ≤ 100 nM |
